Assay results taken from PMC12198282, “Application of a high-density microelectrode array assay using a 3D human iPSC-derived brain microphysiological system model for in vitro neurotoxicity screening of environmental compounds” (Archives of Toxicology, 2025).
Read-outs that look alike come from different tables or passages of the source.

How the values were obtained:
2D rat cortical cultures [1] = settings: cited from earlier work
[2] = tested on: human iPSC-derived 3D BrainSpheres; experiment: BrainSphere MEA assay (HD-MEA, 13-day exposure, concentration-response); format: cell-based; settings: for AC50: concentration at 50% maximal activity, Supplement 3 prints it also for curves with hit call 0; on hitc Mean.Spheroid.Burst.Duration: key: 1 (active); 0 (inactive); on hitc Mean.Spheroid.Burst.ISI: key: 1 (active); 0 (inactive); on hitc Mean.Spheroid.Burst.Peak.Firing.Rate: key: 1 (active); 0 (inactive); on hitc Mean.Spheroid.Firing.Rate: key: 1 (active); 0 (inactive); on hitc Mean.Spheroid.IBI: key: 1 (active); 0 (inactive); on hitc Mean.Spheroid.Nonburst.ISI: key: 1 (active); 0 (inactive); on hitc Mean.Spheroid.Spikes.per.Burst.per.Electrode: key: 1 (active); 0 (inactive); on hitc Mean.Spheroid.Spikes.per.Burst: key: 1 (active); 0 (inactive); on hitc Spheroid.Burst.Frequency: key: 1 (active); 0 (inactive); on hitc Spheroid.Spike.Amplitude.90th.Percentile: key: 1 (active); 0 (inactive)
How it was run: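 Recordings used a 5× RMS spike threshold and 600 s network scans of fixed electrode regions, each region clustered as one BrainSphere. Spheres had 7 weeks of differentiation and 48 h attachment on coated HD-MEA chips before day 0 of the 13-day concentration-response exposure. At least three independent plates were run.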

2D rat cortical cultures [3] = settings: cited from earlier work; for AC50: rNFA mc5
2D rat cortical cultures [4] = settings: cytotoxicity LDH, cited from earlier work
[5] = AUC over 13-day exposure, tcplfit2
[6] = tcplfit2 BMD at benchmark response (1.349*SD of baseline controls)
[7] = tcplfit2 output ACC, activity cutoff in Supplemental Table 1
[8] = top of winning model, response normalized as percent of vehicle control, negative = decrease
Wherever hitc CCTE Shafer MEA dev active electrodes number is given: key: 1 (active); 0 (inactive).
Wherever hitc CCTE Shafer MEA dev burst duration mean is given: key: 1 (active); 0 (inactive).
Wherever hitc CCTE Shafer MEA dev burst rate is given: key: 1 (active); 0 (inactive).
Wherever hitc CCTE Shafer MEA dev bursting electrodes number is given: key: 1 (active); 0 (inactive).
Wherever hitc CCTE Shafer MEA dev correlation coefficient mean is given: key: 1 (active); 0 (inactive).
Wherever hitc CCTE Shafer MEA dev firing rate mean is given: key: 1 (active); 0 (inactive).
Wherever hitc CCTE Shafer MEA dev inter network spike interval mean is given: key: 1 (active); 0 (inactive).
Wherever hitc CCTE Shafer MEA dev interburst interval mean is given: key: 1 (active); 0 (inactive).
Wherever hitc CCTE Shafer MEA dev mutual information norm is given: key: 1 (active); 0 (inactive).
Wherever hitc CCTE Shafer MEA dev network spike duration std is given: key: 1 (active); 0 (inactive).
Wherever hitc CCTE Shafer MEA dev network spike number is given: key: 1 (active); 0 (inactive).
Wherever hitc CCTE Shafer MEA dev network spike peak is given: key: 1 (active); 0 (inactive).
Wherever hitc CCTE Shafer MEA dev per burst interspike interval is given: key: 1 (active); 0 (inactive).
Wherever hitc CCTE Shafer MEA dev per burst spike percent is given: key: 1 (active); 0 (inactive).
Wherever hitc CCTE Shafer MEA dev per network spike spike number mean is given: key: 1 (active); 0 (inactive).
Wherever hitc CCTE Shafer MEA dev per network spike spike percent is given: key: 1 (active); 0 (inactive).
Wherever hitc CCTE Shafer MEA dev spike duration mean is given: key: 1 (active); 0 (inactive).

## [CH3][Hg][Cl] [Methylmercury]
2D rat cortical cultures [1]; rNFA mc5 hit call, cytotoxicity AlamarBlue
  hitc CCTE_Shafer_MEA_dev_AB: 1
2D rat cortical cultures [1]; read-out: ac50 CCTE_Shafer_MEA_dev_AB, rNFA mc5, cytotoxicity AlamarBlue
  AC50: 0.283 µM
2D rat cortical cultures [1]; ref Brown et al. [2016], Carstens et al. [2022], Frank et al. [2017b], Shafer et al. [2019], ToxCast invitrodb (v4.2)
  Cytotoxicity in the resazurin assay of the rNFA (in words): demonstrating cytotoxicity in the rNFA
[2]; 5th percentile across active AC50 values per chemical, read-out: Minimum potency
  EC50: 2.41 µM
[2]; 5th percentile of AC50 values by chemical, above 0.5 = more potent in the rNFA
  Difference of minimum potency between BrainSphere MEA assay and rNFA: more than 0.5 log10 µM
[2]; [5]
  hitc Mean.Spheroid.Burst.Duration: 1
  hitc Mean.Spheroid.Burst.ISI: 1
  hitc Mean.Spheroid.Burst.Peak.Firing.Rate: 1
  hitc Mean.Spheroid.Firing.Rate: 1
  hitc Mean.Spheroid.IBI: 1
  hitc Mean.Spheroid.Nonburst.ISI: 1
  hitc Mean.Spheroid.Spikes.per.Burst: 1
  hitc Mean.Spheroid.Spikes.per.Burst.per.Electrode: 1
  hitc Spheroid.Burst.Frequency: 1
  hitc Spheroid.Spike.Amplitude.90th.Percentile: 1
[2]; DOE 0-13, highest tested concentrations, Fig. 3
  Bioactivity trend over time for MFR, mean spike amplitude and burst frequency (qualitative): appeared to decrease activity
[2]; listed as Methylmercuric(II) chloride, read-out: ac50 Mean.Spheroid.Burst.Duration
  AC50: 5.9 µM
[2]; listed as Methylmercuric(II) chloride, read-out: ac50 Mean.Spheroid.Burst.ISI
  AC50: 3.3 µM
[2]; listed as Methylmercuric(II) chloride, read-out: ac50 Mean.Spheroid.Burst.Peak.Firing.Rate
  AC50: 3 µM
[2]; listed as Methylmercuric(II) chloride, read-out: ac50 Mean.Spheroid.Firing.Rate
  AC50: 7.7 µM
[2]; listed as Methylmercuric(II) chloride, read-out: ac50 Mean.Spheroid.IBI
  AC50: 6.3 µM
[2]; listed as Methylmercuric(II) chloride, read-out: ac50 Mean.Spheroid.Nonburst.ISI
  AC50: 2.6 µM
[2]; listed as Methylmercuric(II) chloride, read-out: ac50 Mean.Spheroid.Spikes.per.Burst
  AC50: 7.9 µM
[2]; listed as Methylmercuric(II) chloride, read-out: ac50 Mean.Spheroid.Spikes.per.Burst.per.Electrode
  AC50: 6.5 µM
[2]; listed as Methylmercuric(II) chloride, read-out: ac50 Spheroid.Burst.Frequency
  AC50: 2.3 µM
[2]; listed as Methylmercuric(II) chloride, read-out: ac50 Spheroid.Spike.Amplitude.90th.Percentile
  AC50: 16 µM
[2]; read-out: ac50 Mean.Spheroid.Burst.Duration
  AC50: 5.91 µM
[2]; read-out: ac50 Mean.Spheroid.Burst.ISI
  AC50: 3.34 µM
[2]; read-out: ac50 Mean.Spheroid.Burst.Peak.Firing.Rate
  AC50: 3.02 µM
[2]; read-out: ac50 Mean.Spheroid.Firing.Rate
  AC50: 7.68 µM
[2]; read-out: ac50 Mean.Spheroid.IBI
  AC50: 6.32 µM
[2]; read-out: ac50 Mean.Spheroid.Nonburst.ISI
  AC50: 2.56 µM
[2]; read-out: ac50 Mean.Spheroid.Spikes.per.Burst
  AC50: 7.9 µM
[2]; read-out: ac50 Mean.Spheroid.Spikes.per.Burst.per.Electrode
  AC50: 6.46 µM
[2]; read-out: ac50 Spheroid.Burst.Frequency
  AC50: 2.29 µM
[2]; read-out: ac50 Spheroid.Spike.Amplitude.90th.Percentile
  AC50: 16 µM
[2]; mean across active AC50 values per chemical, read-out: Mean potency
  EC50: 6.15 µM
[2]; metrics active out of the total number of metrics screened
  Percent active: 100%
[2]; [6]
  BMD Mean.Spheroid.Burst.Duration: 5.5 µM
  BMD Mean.Spheroid.Burst.ISI: 2.3 µM
  BMD Mean.Spheroid.Burst.Peak.Firing.Rate: 2.6 µM
  BMD Mean.Spheroid.Firing.Rate: 7.8 µM
  BMD Mean.Spheroid.IBI: 5.9 µM
  BMD Mean.Spheroid.Nonburst.ISI: 1.8 µM
  BMD Mean.Spheroid.Spikes.per.Burst: 7.7 µM
  BMD Mean.Spheroid.Spikes.per.Burst.per.Electrode: 6.2 µM
  BMD Spheroid.Burst.Frequency: 2.4 µM
  BMD Spheroid.Spike.Amplitude.90th.Percentile: 5.1 µM
[2]; [7]
  ACC Mean.Spheroid.Burst.Duration: 5.4 µM
  ACC Mean.Spheroid.Burst.ISI: 1.7 µM
  ACC Mean.Spheroid.Burst.Peak.Firing.Rate: 2.5 µM
  ACC Mean.Spheroid.Firing.Rate: 8.2 µM
  ACC Mean.Spheroid.IBI: 6.3 µM
  ACC Mean.Spheroid.Nonburst.ISI: 2.2 µM
  ACC Mean.Spheroid.Spikes.per.Burst: 8 µM
  ACC Mean.Spheroid.Spikes.per.Burst.per.Electrode: 6.4 µM
  ACC Spheroid.Burst.Frequency: 2 µM
  ACC Spheroid.Spike.Amplitude.90th.Percentile: 10 µM
[2]; [8]
  Top Mean.Spheroid.Burst.Duration: −97
  Top Mean.Spheroid.Burst.ISI: −99
  Top Mean.Spheroid.Burst.Peak.Firing.Rate: −95
  Top Mean.Spheroid.Firing.Rate: −88
  Top Mean.Spheroid.IBI: −94
  Top Mean.Spheroid.Nonburst.ISI: −100
  Top Mean.Spheroid.Spikes.per.Burst: −100
  Top Mean.Spheroid.Spikes.per.Burst.per.Electrode: −95
  Top Spheroid.Burst.Frequency: −100
  Top Spheroid.Spike.Amplitude.90th.Percentile: −21
[2]; total number of active endpoints out of 10 MEA activity metrics, 13-day exposure
  Hits: 10
2D rat cortical cultures [3]; aenm active_electrodes_number, read-out: ac50 CCTE_Shafer_MEA_dev_active_electrodes_number
  AC50: 0.36 µM
2D rat cortical cultures [3]; aenm burst_duration_mean, read-out: ac50 CCTE_Shafer_MEA_dev_burst_duration_mean
  AC50: 0.26 µM
2D rat cortical cultures [3]; aenm burst_rate, read-out: ac50 CCTE_Shafer_MEA_dev_burst_rate
  AC50: 0.207 µM
2D rat cortical cultures [3]; aenm bursting_electrodes_number, read-out: ac50 CCTE_Shafer_MEA_dev_bursting_electrodes_number
  AC50: 0.37 µM
2D rat cortical cultures [3]; aenm correlation_coefficient_mean, read-out: ac50 CCTE_Shafer_MEA_dev_correlation_coefficient_mean
  AC50: 0.306 µM
2D rat cortical cultures [3]; aenm firing_rate_mean, read-out: ac50 CCTE_Shafer_MEA_dev_firing_rate_mean
  AC50: 0.177 µM
2D rat cortical cultures [3]; aenm inter_network_spike_interval_mean, read-out: ac50 CCTE_Shafer_MEA_dev_inter_network_spike_interval_mean
  AC50: 0.006 µM
2D rat cortical cultures [3]; aenm interburst_interval_mean, read-out: ac50 CCTE_Shafer_MEA_dev_interburst_interval_mean
  AC50: 0.34 µM
2D rat cortical cultures [3]; aenm mutual_information_norm, read-out: ac50 CCTE_Shafer_MEA_dev_mutual_information_norm
  AC50: 0.134 µM
2D rat cortical cultures [3]; aenm network_spike_duration_std, read-out: ac50 CCTE_Shafer_MEA_dev_network_spike_duration_std
  AC50: 0.164 µM
2D rat cortical cultures [3]; aenm network_spike_number, read-out: ac50 CCTE_Shafer_MEA_dev_network_spike_number
  AC50: 0.087 µM
2D rat cortical cultures [3]; aenm network_spike_peak, read-out: ac50 CCTE_Shafer_MEA_dev_network_spike_peak
  AC50: 0.356 µM
2D rat cortical cultures [3]; aenm per_burst_interspike_interval, read-out: ac50 CCTE_Shafer_MEA_dev_per_burst_interspike_interval
  AC50: 0.322 µM
2D rat cortical cultures [3]; aenm per_burst_spike_percent, read-out: ac50 CCTE_Shafer_MEA_dev_per_burst_spike_percent
  AC50: 0.306 µM
2D rat cortical cultures [3]; aenm per_network_spike_spike_number_mean, read-out: ac50 CCTE_Shafer_MEA_dev_per_network_spike_spike_number_mean
  AC50: 0.536 µM
2D rat cortical cultures [3]; aenm per_network_spike_spike_percent, read-out: ac50 CCTE_Shafer_MEA_dev_per_network_spike_spike_percent
  AC50: 0.309 µM
2D rat cortical cultures [3]; aenm spike_duration_mean, read-out: ac50 CCTE_Shafer_MEA_dev_spike_duration_mean
  AC50: 0.275 µM
2D rat cortical cultures [3]; rNFA mc5 hit call, aenm active_electrodes_number
  hitc CCTE_Shafer_MEA_dev_active_electrodes_number: 1
2D rat cortical cultures [3]; rNFA mc5 hit call, aenm burst_duration_mean
  hitc CCTE_Shafer_MEA_dev_burst_duration_mean: 1
2D rat cortical cultures [3]; rNFA mc5 hit call, aenm burst_rate
  hitc CCTE_Shafer_MEA_dev_burst_rate: 1
2D rat cortical cultures [3]; rNFA mc5 hit call, aenm bursting_electrodes_number
  hitc CCTE_Shafer_MEA_dev_bursting_electrodes_number: 1
2D rat cortical cultures [3]; rNFA mc5 hit call, aenm correlation_coefficient_mean
  hitc CCTE_Shafer_MEA_dev_correlation_coefficient_mean: 1
2D rat cortical cultures [3]; rNFA mc5 hit call, aenm firing_rate_mean
  hitc CCTE_Shafer_MEA_dev_firing_rate_mean: 1
2D rat cortical cultures [3]; rNFA mc5 hit call, aenm inter_network_spike_interval_mean
  hitc CCTE_Shafer_MEA_dev_inter_network_spike_interval_mean: 1
2D rat cortical cultures [3]; rNFA mc5 hit call, aenm interburst_interval_mean
  hitc CCTE_Shafer_MEA_dev_interburst_interval_mean: 1
2D rat cortical cultures [3]; rNFA mc5 hit call, aenm mutual_information_norm
  hitc CCTE_Shafer_MEA_dev_mutual_information_norm: 1
2D rat cortical cultures [3]; rNFA mc5 hit call, aenm network_spike_duration_std
  hitc CCTE_Shafer_MEA_dev_network_spike_duration_std: 1
2D rat cortical cultures [3]; rNFA mc5 hit call, aenm network_spike_number
  hitc CCTE_Shafer_MEA_dev_network_spike_number: 1
2D rat cortical cultures [3]; rNFA mc5 hit call, aenm network_spike_peak
  hitc CCTE_Shafer_MEA_dev_network_spike_peak: 1
2D rat cortical cultures [3]; rNFA mc5 hit call, aenm per_burst_interspike_interval
  hitc CCTE_Shafer_MEA_dev_per_burst_interspike_interval: 1
2D rat cortical cultures [3]; rNFA mc5 hit call, aenm per_burst_spike_percent
  hitc CCTE_Shafer_MEA_dev_per_burst_spike_percent: 1
2D rat cortical cultures [3]; rNFA mc5 hit call, aenm per_network_spike_spike_number_mean
  hitc CCTE_Shafer_MEA_dev_per_network_spike_spike_number_mean: 1
2D rat cortical cultures [3]; rNFA mc5 hit call, aenm per_network_spike_spike_percent
  hitc CCTE_Shafer_MEA_dev_per_network_spike_spike_percent: 1
2D rat cortical cultures [3]; rNFA mc5 hit call, aenm spike_duration_mean
  hitc CCTE_Shafer_MEA_dev_spike_duration_mean: 1
2D rat cortical cultures [4]; rNFA mc5 hit call
  hitc CCTE_Shafer_MEA_dev_LDH: 1
2D rat cortical cultures [4]; read-out: ac50 CCTE_Shafer_MEA_dev_LDH, rNFA mc5
  AC50: 0.182 µM
